The values that follow come from US4336268A, “Cyclohexene derivative analgesics” (Hoffmann-La Roche Inc., priority 1980, dated 1982).

Common to all, as to format: in vivo
Series [1] is described as follows: acute toxicity, single oral administration to mice. To be noted: mouse, in vivo. The source says: (§1) In the Table which follows are compiled the ED50 values obtained in this test with representative compounds of formula I. The Table also contains data relating to the acute toxicity of the compounds, that is, LD50 in mg/kg in the case of single oral administration to mice.

Series [2] can be described thus: "writhing test" (analgesic activity). To be noted: p.o.; for ED50: Mus musculus, po.
Text: as §1

In a further series the test system is mice. Briefly: acute toxicity, single oral administration to mice.
Text: as §1

Structures can show the parent of a compound that is named as a salt.

Regarding `COc1cccc(C2(CCN(C)C)C=CCCC2)c1.Cl` (single isomer, unassigned; (+)) [(+)-1-(m-Methoxyphenyl)-N,N-dimethyl-2-cyclohexene-1-ethylamine hydrochloride], in series [1], the LD50 is 250 to 500 mg/kg. This molecule yielded a 50% effective dose (ED50) in series [2] (1 h, after 60 min.) of 24 mg/kg.

Molecule `CN(C)CCC1(c2cccc(O)c2)C=CCCC1` (racemic) [rac. 1-(m-Hydroxyphenyl)-N,N-dimethyl-2-cyclohexene-1-ethylamine hydrochloride] yielded a 50% lethal dose (LD50) in series [1] of 250 to 500 mg/kg. Further, the ED50 worked out at 41 mg/kg in series [2] (0.5 h, after 30 min.) and 26 mg/kg in series [2] (1 h, after 60 min.).

In the series with mice, `COc1cccc(C2(CCN(C)C)C=CCCC2)c1.Cl` (single isomer, unassigned; (-)) [(-)-1-(m-Methoxyphenyl)-N,N-dimethyl-2-cyclohexene-1-ethylam] [(-)-1-(m-Methoxyphenyl)-N,N-dimethyl-2-cyclohexene-1-ethylamine hydrochloride] yielded an LD50 of 250 to 500 mg/kg. In series [2] (after 60 min., hydrochloride, 60 min), the “ED50 in the "writhing test"” value was 19 mg/kg.

For the molecule `COc1cccc(C2(CCN(C)C)C=CCCC2)c1` (racemic) [rac. 1-(m-methoxyphenyl)-N,N-dimethyl-2-cyclohexene-1-ethylamine hydrochloride], in series [1], the LD50 is 150 to 300 mg/kg. For the same molecule, the ED50 in series [2] (0.5 h, after 30 min.) was found to be 33 mg/kg; in series [2] (1 h, after 60 min.), 35 mg/kg.
